Assays:
[1] = Inhibition of human full length HPK1-T165E/S171E mutant expressed in baculovirus expression system assessed as inhibition of SLP76 phosphorylation using biotinylated SLP76 as substrate preincubated for 30 mins followed by incubation with substrate in presence of ATP and measured for 60 mins by HTRF assay
[2] = molecular target: T1, Mitogen-activated protein kinase kinase kinase kinase 1 (Homo sapiens, UniProt Q92918); test: Inhibition of HPK1 in primary human Pan T cells assessed as increase in IL-2 secretion pretreated for 30 mins followed by incubation with anti-CD3/anti-CD28 and measured after 4 hrs by MSD assay relative to control; type: cell-based; conditions: T cell, time 4.5 hrs
Target sequence in this assay (Q92918 whole entry, looked up): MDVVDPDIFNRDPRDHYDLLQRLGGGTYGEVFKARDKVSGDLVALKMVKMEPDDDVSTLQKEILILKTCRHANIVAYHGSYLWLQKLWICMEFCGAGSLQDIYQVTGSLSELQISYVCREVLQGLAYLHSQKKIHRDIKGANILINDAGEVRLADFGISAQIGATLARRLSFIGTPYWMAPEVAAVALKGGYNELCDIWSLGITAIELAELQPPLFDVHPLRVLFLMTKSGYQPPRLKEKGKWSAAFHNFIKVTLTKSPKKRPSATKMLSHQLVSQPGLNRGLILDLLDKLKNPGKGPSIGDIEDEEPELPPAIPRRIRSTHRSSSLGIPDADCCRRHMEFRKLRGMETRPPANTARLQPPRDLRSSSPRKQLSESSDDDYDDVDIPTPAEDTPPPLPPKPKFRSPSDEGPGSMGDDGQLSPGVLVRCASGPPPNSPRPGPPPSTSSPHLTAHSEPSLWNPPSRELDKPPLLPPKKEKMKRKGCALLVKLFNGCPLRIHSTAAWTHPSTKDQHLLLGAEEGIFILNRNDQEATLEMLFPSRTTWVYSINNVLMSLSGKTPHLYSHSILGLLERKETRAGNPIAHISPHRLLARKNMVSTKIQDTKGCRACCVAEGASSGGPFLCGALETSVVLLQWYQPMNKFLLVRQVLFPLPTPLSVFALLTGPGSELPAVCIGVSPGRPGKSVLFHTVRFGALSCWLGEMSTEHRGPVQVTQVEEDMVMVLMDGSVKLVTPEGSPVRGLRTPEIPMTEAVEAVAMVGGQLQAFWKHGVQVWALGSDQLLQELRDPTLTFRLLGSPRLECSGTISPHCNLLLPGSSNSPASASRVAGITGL

[3] = Protein binding in mouse plasma; type: ADME, cell-free; conditions: read-out: PPB (converted)
[4] = species: Homo sapiens; test: Inhibition of benzodiazepine receptor (unknown origin) at 10 uM
[5] = Half life in Sprague-Dawley rat at 0.5 mg/kg, iv measured for 8 hrs by LC-MS/MS analysis; type: ADME, organism-based; conditions: in vivo
[6] = Apparent permeability of the compound across apical to basolateral side in dog MDCK1 cells at 10 uM by LC-MS/MS analysis; type: ADME, cell-based, Canis lupus familiaris; conditions: MDCK
[7] = Oral bioavailability in Sprague-Dawley rat; type: ADME, organism-based; conditions: in vivo
[8] = molecular target: Mitogen-activated protein kinase kinase kinase kinase 4 (Homo sapiens, UniProt O95819); test: Inhibition of MAP4K4 (unknown origin)
[9] = Selectivity ratio of IC50 for inhibition of GCK (unknown origin) to Ki for inhibition of human full length HPK1-T165E/S171E mutant expressed in baculovirus expression system
[10] = molecular target: T1, Mitogen-activated protein kinase kinase kinase kinase 1; test: Inhibition of HPK1 in primary human Pan T cells assessed as increase in IL-2 secretion pretreated for 30 mins followed by incubation with anti-CD3/anti-CD28 and measured after 4 hrs by MSD assay; type: cell-based, T cell
Target sequence in this assay (Q92918 whole entry): as the sequence (Q92918 whole entry, looked up) above

[11] = Inhibition of KHS1 (unknown origin); design: species or system Homo sapiens
[12] = Protein binding in cynomolgus monkey plasma; type: ADME, cell-free, Macaca fascicularis; conditions: read-out: PPB (converted)
[13] = Protein binding in dog plasma; type: ADME, cell-free, Canis lupus familiaris; conditions: read-out: PPB (converted)
[14] = Oral bioavailability in cynomolgus monkey at 0.5 mg/kg measured for 24 hrs by LC/MS/MS analysis; type: ADME, organism-based, Macaca fascicularis; conditions: in vivo
[15] = molecular target: Misshapen-like kinase 1 (Homo sapiens, UniProt Q8N4C8); test: Inhibition of MINK1 (unknown origin)
[16] = Selectivity ratio of IC50 for inhibition of MAP4K4 (unknown origin) to Ki for inhibition of human full length HPK1-T165E/S171E mutant expressed in baculovirus expression system
[17] = Protein binding in rat plasma; type: ADME, cell-free; conditions: read-out: PPB (converted)
[18] = Oral bioavailability in C57BL/6 mouse at 25 mg/kg measured for 24 hrs by LC-MS/MS analysis; type: ADME, organism-based; conditions: in vivo
[19] = molecular target: T2, D(4) dopamine receptor (Homo sapiens) (UniProt P21917); test: Inhibition of dopamine D4 receptor (unknown origin) at 10 uM
T2 sequence (whole entry): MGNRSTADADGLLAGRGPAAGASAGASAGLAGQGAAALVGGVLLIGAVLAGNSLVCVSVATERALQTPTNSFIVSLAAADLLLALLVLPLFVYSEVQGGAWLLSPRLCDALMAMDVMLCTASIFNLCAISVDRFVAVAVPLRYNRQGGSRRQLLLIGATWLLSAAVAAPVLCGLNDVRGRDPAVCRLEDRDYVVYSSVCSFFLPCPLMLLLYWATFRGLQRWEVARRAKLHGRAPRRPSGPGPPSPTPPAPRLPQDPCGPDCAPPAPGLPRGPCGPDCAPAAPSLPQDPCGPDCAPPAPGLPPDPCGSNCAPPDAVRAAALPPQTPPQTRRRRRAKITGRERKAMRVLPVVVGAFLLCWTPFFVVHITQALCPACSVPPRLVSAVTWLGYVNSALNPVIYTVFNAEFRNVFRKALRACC

[20] = Half life in cynomolgus monkey at 0.5 mg/kg, po or 0.5 mg/kg, iv by measured for 24 hrs LC/MS/MS analysis; type: ADME, organism-based, Macaca fascicularis; conditions: in vivo
[21] = Volume of distribution at steady state in cynomolgus monkey at 0.5 mg/kg, po or 0.5 mg/kg, iv measured for 24 hrs by LC/MS/MS analysis; type: ADME, organism-based, Macaca fascicularis; conditions: in vivo
[22] = Volume of distribution at steady state in Sprague-Dawley rat at 0.5 mg/kg, iv measured for 8 hrs by LC-MS/MS analysis; type: ADME, organism-based; conditions: in vivo, read-out: Vdss
[23] = molecular target: T3, Mitogen-activated protein kinase kinase kinase kinase 3 (Homo sapiens, UniProt Q8IVH8); test: Inhibition of GLK (unknown origin)
T3 sequence (Q8IVH8 whole entry): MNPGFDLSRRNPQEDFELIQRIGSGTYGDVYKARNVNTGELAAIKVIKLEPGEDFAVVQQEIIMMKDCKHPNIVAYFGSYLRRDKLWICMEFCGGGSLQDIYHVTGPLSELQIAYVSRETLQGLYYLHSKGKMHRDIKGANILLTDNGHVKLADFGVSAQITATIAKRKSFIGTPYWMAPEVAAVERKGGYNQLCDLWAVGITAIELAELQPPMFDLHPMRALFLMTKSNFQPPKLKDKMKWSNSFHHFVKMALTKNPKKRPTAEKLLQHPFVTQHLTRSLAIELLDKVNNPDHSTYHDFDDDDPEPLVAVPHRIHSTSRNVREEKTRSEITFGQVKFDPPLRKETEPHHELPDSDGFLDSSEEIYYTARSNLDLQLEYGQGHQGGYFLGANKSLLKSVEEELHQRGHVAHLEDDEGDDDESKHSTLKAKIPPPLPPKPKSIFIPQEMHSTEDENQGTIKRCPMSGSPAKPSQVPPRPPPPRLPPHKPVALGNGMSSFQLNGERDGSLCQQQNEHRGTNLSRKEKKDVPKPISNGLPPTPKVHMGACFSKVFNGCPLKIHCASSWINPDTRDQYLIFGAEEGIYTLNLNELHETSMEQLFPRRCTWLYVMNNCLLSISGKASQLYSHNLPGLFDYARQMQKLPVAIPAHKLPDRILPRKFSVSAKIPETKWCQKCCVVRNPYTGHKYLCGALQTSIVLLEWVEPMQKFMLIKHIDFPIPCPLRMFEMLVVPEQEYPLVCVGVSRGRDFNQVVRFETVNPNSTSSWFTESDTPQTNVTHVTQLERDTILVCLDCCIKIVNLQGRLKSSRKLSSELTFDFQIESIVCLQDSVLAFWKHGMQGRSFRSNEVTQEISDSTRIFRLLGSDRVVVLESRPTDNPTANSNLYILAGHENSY

[24] = Selectivity ratio of IC50 for inhibition of TNIK (unknown origin) to Ki for inhibition of human full length HPK1-T165E/S171E mutant expressed in baculovirus expression system
[25] = molecular target: Voltage-gated inwardly rectifying potassium channel KCNH2 (Homo sapiens, UniProt Q12809); test: Inhibition of hERG; type: toxicity
[26] = molecular target: Sodium channel protein type 5 subunit alpha (Homo sapiens, UniProt Q14524); test: Inhibition of Nav1.5 (unknown origin)
[27] = Volume of distribution at steady state in Beagle dog at 0.5 mg/kg, po or 0.5 mg/kg, iv measured for 24 hrs by LC/MS/MS analysis; type: ADME, organism-based, Canis lupus familiaris; conditions: in vivo
[28] = molecular target: T1, Mitogen-activated protein kinase kinase kinase kinase 1; test: Inhibition of HPK1 in human Jurkat cells assessed as inhibition of anti-CD3/anti-CD28-induced SLP76 phosporylation at Ser376 residue incubated for 30 mins by ELISA; type: cell-based
Target sequence in this assay (Q92918 whole entry): as the sequence (Q92918 whole entry, looked up) above

[29] = Selectivity ratio of IC50 for inhibition of KHS1 (unknown origin) to Ki for inhibition of human full length HPK1-T165E/S171E mutant expressed in baculovirus expression system
[30] = Oral bioavailability in Beagle dog at 0.5 mg/kg measured for 24 hrs by LC/MS/MS analysis; type: ADME, organism-based, Canis lupus familiaris; conditions: in vivo
[31] = molecular target: TRAF2 and NCK-interacting protein kinase (Homo sapiens, UniProt Q9UKE5); test: Inhibition of TNIK (unknown origin)
[32] = molecular target: T4, Mitogen-activated protein kinase kinase kinase kinase 2 (Homo sapiens, UniProt Q12851); test: Inhibition of GCK (unknown origin)
T4 sequence (Q12851 whole entry): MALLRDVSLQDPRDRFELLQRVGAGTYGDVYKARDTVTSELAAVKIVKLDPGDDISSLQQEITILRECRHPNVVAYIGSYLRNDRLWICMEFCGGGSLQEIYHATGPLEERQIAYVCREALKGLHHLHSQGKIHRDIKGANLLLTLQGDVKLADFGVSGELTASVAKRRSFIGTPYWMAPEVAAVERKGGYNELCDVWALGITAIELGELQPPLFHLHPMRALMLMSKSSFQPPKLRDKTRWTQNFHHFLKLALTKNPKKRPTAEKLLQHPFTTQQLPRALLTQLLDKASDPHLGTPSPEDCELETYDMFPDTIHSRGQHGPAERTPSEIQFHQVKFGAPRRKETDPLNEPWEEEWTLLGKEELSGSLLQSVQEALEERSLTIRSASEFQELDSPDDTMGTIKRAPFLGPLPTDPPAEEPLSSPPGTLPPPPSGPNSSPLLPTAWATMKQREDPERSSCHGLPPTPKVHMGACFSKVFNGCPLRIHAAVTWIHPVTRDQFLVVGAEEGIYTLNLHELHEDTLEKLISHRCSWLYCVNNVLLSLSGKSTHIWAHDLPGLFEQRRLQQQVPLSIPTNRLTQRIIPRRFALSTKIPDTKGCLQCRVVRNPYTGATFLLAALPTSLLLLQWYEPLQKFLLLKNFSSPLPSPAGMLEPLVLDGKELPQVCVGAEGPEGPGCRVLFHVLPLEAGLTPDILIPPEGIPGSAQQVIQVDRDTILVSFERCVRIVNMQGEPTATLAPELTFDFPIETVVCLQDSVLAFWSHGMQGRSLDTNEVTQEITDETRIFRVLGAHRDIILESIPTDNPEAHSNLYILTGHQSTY

[33] = molecular target: Aurora kinase B (Homo sapiens, UniProt Q96GD4); test: Inhibition of Aurora kinase B (unknown origin)
[34] = molecular target: Sodium-dependent serotonin transporter (Homo sapiens) (UniProt P31645); test: Inhibition of 5-HTT (unknown origin) at 10 uM
[35] = test system: Hepatocyte; test: Cytotoxicity against human primary hepatocytes upto 100 uM; type: toxicity, cell-based
[36] = Clearance in Sprague-Dawley rat at 0.5 mg/kg, iv measured for 8 hrs by LC-MS/MS analysis; type: ADME, organism-based; conditions: in vivo
[37] = Cytotoxicity against human liver-microtissues upto 100 uM; type: toxicity, tissue-based
[38] = Selectivity ratio of IC50 for inhibition of GLK (unknown origin) to Ki for inhibition of human full length HPK1-T165E/S171E mutant expressed in baculovirus expression system
[39] = Half life in C57BL/6 mouse at 25 mg/kg, po or 1 mg/kg, iv measured for 24 hrs by LC-MS/MS analysis; type: ADME, organism-based; conditions: in vivo
[40] = molecular target: Leucine-rich repeat serine/threonine-protein kinase 2 (Homo sapiens, UniProt Q5S007); test: Inhibition of LRRK2 (unknown origin)
[41] = molecular target: Voltage-dependent L-type calcium channel subunit alpha-1C (Homo sapiens, UniProt Q13936); test: Inhibition of Cav1.2 (unknown origin)
[42] = Volume of distribution at steady state in C57BL/6 mouse at 25 mg/kg, po or 1 mg/kg, iv measured for 24 hrs by LC-MS/MS analysis; type: ADME, organism-based; conditions: in vivo
[43] = Half life in Beagle dog at 0.5 mg/kg, po or 0.5 mg/kg, iv measured for 24 hrs by LC/MS/MS analysis; type: ADME, organism-based, Canis lupus familiaris; conditions: in vivo
[44] = Selectivity ratio of IC50 for inhibition of MINK1 (unknown origin) to Ki for inhibition of human full length HPK1-T165E/S171E mutant expressed in baculovirus expression system

TRAF2 and NCK-interacting protein kinase, sequence (Q9UKE5 whole entry): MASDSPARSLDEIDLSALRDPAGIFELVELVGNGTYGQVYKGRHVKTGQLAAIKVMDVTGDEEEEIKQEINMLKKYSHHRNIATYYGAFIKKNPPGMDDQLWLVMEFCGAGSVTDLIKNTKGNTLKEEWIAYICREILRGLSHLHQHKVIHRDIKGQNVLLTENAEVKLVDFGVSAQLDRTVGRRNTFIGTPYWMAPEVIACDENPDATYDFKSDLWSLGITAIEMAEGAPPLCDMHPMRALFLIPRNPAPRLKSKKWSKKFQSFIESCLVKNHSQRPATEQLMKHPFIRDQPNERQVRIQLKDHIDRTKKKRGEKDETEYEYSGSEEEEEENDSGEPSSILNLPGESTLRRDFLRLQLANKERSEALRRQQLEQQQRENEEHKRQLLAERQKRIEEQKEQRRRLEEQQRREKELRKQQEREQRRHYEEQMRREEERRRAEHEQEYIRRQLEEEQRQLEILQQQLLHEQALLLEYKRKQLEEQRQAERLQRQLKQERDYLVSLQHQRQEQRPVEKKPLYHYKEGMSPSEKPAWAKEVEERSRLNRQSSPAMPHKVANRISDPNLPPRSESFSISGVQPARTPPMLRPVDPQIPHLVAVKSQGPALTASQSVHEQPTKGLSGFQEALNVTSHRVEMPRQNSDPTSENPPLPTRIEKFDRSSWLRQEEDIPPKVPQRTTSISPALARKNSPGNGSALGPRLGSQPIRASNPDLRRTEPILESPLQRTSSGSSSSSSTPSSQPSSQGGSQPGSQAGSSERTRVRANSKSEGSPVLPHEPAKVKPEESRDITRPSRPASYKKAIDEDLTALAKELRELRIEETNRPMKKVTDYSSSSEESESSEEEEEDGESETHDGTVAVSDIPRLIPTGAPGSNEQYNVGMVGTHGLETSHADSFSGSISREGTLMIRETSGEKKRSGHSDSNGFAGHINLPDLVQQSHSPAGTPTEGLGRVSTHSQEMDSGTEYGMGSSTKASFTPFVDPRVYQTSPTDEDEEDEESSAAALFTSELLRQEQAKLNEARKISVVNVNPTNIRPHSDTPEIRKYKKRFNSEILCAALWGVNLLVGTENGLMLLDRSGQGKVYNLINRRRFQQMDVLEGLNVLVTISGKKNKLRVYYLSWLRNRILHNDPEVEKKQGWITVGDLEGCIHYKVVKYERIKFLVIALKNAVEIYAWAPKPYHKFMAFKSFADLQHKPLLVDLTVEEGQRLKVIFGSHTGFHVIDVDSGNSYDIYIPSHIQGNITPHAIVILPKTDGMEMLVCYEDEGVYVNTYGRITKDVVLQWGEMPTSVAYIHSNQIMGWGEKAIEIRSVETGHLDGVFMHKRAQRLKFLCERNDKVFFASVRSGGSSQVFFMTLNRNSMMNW
Voltage-gated inwardly rectifying potassium channel KCNH2, sequence (Q12809 whole entry): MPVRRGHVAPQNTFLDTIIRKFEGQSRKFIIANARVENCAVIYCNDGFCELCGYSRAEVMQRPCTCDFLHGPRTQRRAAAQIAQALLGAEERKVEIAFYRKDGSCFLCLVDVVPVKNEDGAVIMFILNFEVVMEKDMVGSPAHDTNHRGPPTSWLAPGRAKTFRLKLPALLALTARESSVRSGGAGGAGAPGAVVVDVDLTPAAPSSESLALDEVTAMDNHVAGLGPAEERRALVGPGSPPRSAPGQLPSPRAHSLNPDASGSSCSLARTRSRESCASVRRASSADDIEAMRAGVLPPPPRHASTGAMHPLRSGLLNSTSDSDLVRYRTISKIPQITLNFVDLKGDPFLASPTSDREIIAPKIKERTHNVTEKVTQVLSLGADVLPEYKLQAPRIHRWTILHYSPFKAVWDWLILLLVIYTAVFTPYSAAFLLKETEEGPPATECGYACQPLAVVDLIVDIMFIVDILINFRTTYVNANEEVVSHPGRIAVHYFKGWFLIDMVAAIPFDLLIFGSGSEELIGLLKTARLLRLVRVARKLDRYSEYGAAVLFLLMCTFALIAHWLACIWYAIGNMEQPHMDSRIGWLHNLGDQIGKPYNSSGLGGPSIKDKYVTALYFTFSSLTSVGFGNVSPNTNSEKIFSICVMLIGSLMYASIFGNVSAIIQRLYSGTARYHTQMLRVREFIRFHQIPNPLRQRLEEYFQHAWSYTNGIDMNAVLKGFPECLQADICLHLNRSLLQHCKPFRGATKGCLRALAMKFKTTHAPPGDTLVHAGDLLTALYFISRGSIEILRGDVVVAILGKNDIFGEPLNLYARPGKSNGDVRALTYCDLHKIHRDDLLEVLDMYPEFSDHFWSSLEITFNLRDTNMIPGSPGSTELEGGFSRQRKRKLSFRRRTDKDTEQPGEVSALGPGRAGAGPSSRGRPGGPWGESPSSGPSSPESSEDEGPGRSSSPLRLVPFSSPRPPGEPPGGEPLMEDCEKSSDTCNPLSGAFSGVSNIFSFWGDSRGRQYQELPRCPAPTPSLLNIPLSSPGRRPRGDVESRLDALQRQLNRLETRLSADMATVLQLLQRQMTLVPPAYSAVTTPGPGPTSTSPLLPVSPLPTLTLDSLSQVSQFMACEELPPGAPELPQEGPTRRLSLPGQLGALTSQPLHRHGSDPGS
Sodium-dependent serotonin transporter (Homo sapiens), sequence (P31645 whole entry, looked up): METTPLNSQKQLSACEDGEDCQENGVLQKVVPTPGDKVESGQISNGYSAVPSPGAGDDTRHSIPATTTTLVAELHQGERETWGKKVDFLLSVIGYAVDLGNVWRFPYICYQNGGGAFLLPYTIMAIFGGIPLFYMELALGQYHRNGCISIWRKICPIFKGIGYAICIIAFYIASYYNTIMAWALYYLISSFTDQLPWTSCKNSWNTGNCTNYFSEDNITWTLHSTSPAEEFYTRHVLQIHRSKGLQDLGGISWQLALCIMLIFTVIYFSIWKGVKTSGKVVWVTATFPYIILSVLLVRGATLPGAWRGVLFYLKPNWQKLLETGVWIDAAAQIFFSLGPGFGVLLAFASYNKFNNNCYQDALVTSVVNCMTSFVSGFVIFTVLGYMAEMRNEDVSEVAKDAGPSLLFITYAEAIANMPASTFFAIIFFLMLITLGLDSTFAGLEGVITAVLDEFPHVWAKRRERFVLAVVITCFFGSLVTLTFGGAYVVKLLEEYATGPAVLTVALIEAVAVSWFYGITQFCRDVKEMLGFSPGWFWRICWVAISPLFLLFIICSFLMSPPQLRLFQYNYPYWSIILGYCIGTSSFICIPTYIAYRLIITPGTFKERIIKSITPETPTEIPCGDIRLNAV
Aurora kinase B, sequence (Q96GD4 whole entry): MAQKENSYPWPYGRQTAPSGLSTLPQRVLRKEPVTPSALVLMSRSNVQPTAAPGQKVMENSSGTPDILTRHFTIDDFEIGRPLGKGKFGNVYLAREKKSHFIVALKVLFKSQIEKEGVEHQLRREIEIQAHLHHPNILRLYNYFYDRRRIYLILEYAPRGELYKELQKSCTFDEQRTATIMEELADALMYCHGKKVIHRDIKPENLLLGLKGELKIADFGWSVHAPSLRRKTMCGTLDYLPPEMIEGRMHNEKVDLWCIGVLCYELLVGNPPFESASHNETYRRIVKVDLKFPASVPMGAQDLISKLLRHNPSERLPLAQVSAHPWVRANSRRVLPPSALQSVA

Compound: Cc1ccncc1-c1cc(N)c2cnc(NC(=O)[C@@H]3C[C@H]3C#N)cc2c1
- Ki [1]: 4.9 nM
- fold change (FC) [2]: 5

Compound: Cc1c(-c2cc3cc(NC(=O)O[C@H]4COC[C@@H]4C)ncc3c(N)c2F)cnc2c1NCCO2
- fraction unbound [3]: 0.053
- inhibition [4]: 50%
- half-life [5]: 1.3 h
- Papp A→B at 10 µM [6]: 15 ×10⁻⁶ cm/s
- bioavailability [7]: 30%
- IC50 [8]: 3.3 nM
- Ratio [9]: > 69
- EC50 [10]: 6.4 nM
- IC50 [11]: 3.1 nM
- fraction unbound [12]: 0.116
- fraction unbound [13]: 0.142
- bioavailability [14]: 53%
- IC50 [15]: 3.6 nM
- Ratio [16]: > 180
- fraction unbound [17]: 0.094
- bioavailability ([18]; C57BL/6, mouse): 37%
- inhibition [19]: 50%
- half-life [20]: 1.9 h
- Vdss [21]: 1.9 L/kg
- Vd [22]: 2.2 L/kg
- IC50 [23]: 0.72 nM
- Ratio [24]: > 120
- IC50 [25]: 28000 nM
- IC50 [26]: > 10000 nM
- Vdss [27]: 2.2 L/kg
- IC50 [28]: 44 nM
- Ratio [29]: > 170
- bioavailability [30]: 46%
- IC50 [31]: 2.3 nM
- IC50 [32]: 1.3 nM
- Ki [1]: < 0.019 nM
- IC50 [33]: 46 nM
- inhibition [34]: 50%
- Activity [35]: Non-Toxic
- clearance [36]: 39 mL/min/kg
- Activity [37]: Non-Toxic
- Ratio [38]: > 40
- half-life [39]: 1.7 h
- IC50 [40]: 31 nM
- IC50 [41]: > 10000 nM
- Vdss [42]: 1.8 L/kg
- half-life [43]: 2.5 h
- Ratio [44]: > 200

Compound: Cc1c(N)cncc1-c1cc2cc(Nc3cc4n(n3)CC(=O)N(C)CC4)ncc2c(N)c1F
- half-life [5]: 0.57 h
- Papp A→B at 10 µM [6]: 0.4 ×10⁻⁶ cm/s
- EC50 [10]: 11 nM
- F ([18]; mouse, po, 25 mg/kg, 24 h, BLD = below limit of detection): Bld
- Vd [22]: 2.2 L/kg
- IC50 [28]: 110 nM
- clearance [36]: 64 mL/min/kg
- half-life [39]: 0.26 h
- Vdss [42]: 1.3 L/kg

From ChEMBL document CHEMBL6127064, “Discovery of GNE-6893, a Potent, Selective, Orally Bioavailable Small Molecule Inhibitor of HPK1” (ACS Med Chem Lett, 2024)
